The NIST ThermoML archive (doi:10.1021/je300280s)
Values joined by “and” are separate entries in the source; they are usually repeats but may differ in a detail not shown here. Equal entries are not always repeated.

Columns and labels:
[1] = excess molar enthalpy (molar enthalpy of mixing); xn = mol fraction of the nth substance listed; conditions: 101.3 kPa, Liquid, Flow calorimetry
[2] = xn = mol fraction of the nth substance listed; conditions: 101.3 kPa, Liquid, Vibrating tube method

CC(=O)C(C)=O [2,3-butanedione] + O
Conditions	excess molar enthalpy, [1]	mass density, [2]
288.15 K, x1 = 0.002059	–	1001.04 kg/m3
288.15 K, x1 = 0.002062	–	1001.04 kg/m3
288.15 K, x1 = 0.003086	–	1002 kg/m3
288.15 K, x1 = 0.003089	–	1002 kg/m3
288.15 K, x1 = 0.004111	–	1002.95 kg/m3
288.15 K, x1 = 0.004113	–	1002.96 kg/m3
288.15 K, x1 = 0.005132	–	1003.91 kg/m3
288.15 K, x1 = 0.005135	–	1003.91 kg/m3
288.15 K, x1 = 0.006153	–	1004.87 kg/m3
288.15 K, x1 = 0.006157	–	1004.87 kg/m3
288.18 K, x1 = 0.00103	-0.00487 kcal/mol	–
288.18 K, x1 = 0.001032	-0.00488 kcal/mol	–
288.18 K, x1 = 0.002059	-0.00976 kcal/mol	–
288.18 K, x1 = 0.002062	-0.00976 kcal/mol	–
288.18 K, x1 = 0.003086	-0.0146 kcal/mol	–
288.18 K, x1 = 0.003089	-0.0146 kcal/mol	–
288.18 K, x1 = 0.004111	-0.0193 kcal/mol	–
288.18 K, x1 = 0.004113	-0.0194 kcal/mol	–
288.18 K, x1 = 0.005132	-0.0241 kcal/mol	–
288.18 K, x1 = 0.005135	-0.0241 kcal/mol	–
288.18 K, x1 = 0.006153	-0.029 kcal/mol	–
288.18 K, x1 = 0.006157	-0.0288 kcal/mol	–
293.15 K, x1 = 0.001031	-0.00462 kcal/mol	999.136 kg/m3
293.15 K, x1 = 0.00206	-0.00926 kcal/mol	1000.07 kg/m3
293.15 K, x1 = 0.003088	-0.0138 kcal/mol	1001 kg/m3
293.15 K, x1 = 0.004114	-0.0182 kcal/mol	1001.9 kg/m3
293.15 K, x1 = 0.005136	-0.0227 kcal/mol	1002.82 kg/m3
293.15 K, x1 = 0.006158	-0.0272 kcal/mol	1003.73 kg/m3
298.15 K, x1 = 0.001032	-0.00443 kcal/mol and -0.00441 kcal/mol	997.937 kg/m3 and 997.929 kg/m3
298.15 K, x1 = 0.002061	-0.00881 kcal/mol	998.816 kg/m3
298.15 K, x1 = 0.002062	-0.00882 kcal/mol	998.823 kg/m3
298.15 K, x1 = 0.003089	-0.0132 kcal/mol	999.697 kg/m3 and 999.692 kg/m3
298.15 K, x1 = 0.004113	-0.0175 kcal/mol	1000.57 kg/m3
298.15 K, x1 = 0.004114	-0.0174 kcal/mol	1000.56 kg/m3
298.15 K, x1 = 0.005137	-0.0218 kcal/mol	1001.45 kg/m3 and 1001.43 kg/m3
298.15 K, x1 = 0.00616	-0.0261 kcal/mol	1002.32 kg/m3 and 1002.3 kg/m3
303.15 K, x1 = 0.001032	-0.00411 kcal/mol	996.49 kg/m3
303.15 K, x1 = 0.002061	-0.00821 kcal/mol	997.341 kg/m3
303.15 K, x1 = 0.003089	-0.0123 kcal/mol	998.182 kg/m3
303.15 K, x1 = 0.004114	-0.0163 kcal/mol	999.012 kg/m3
303.15 K, x1 = 0.005137	-0.0203 kcal/mol	999.84 kg/m3
303.15 K, x1 = 0.006159	-0.0243 kcal/mol	1000.66 kg/m3
308.15 K, x1 = 0.001031	-0.00386 kcal/mol and -0.00387 kcal/mol	994.828 kg/m3 and 994.831 kg/m3
308.15 K, x1 = 0.00206	-0.00777 kcal/mol and -0.00778 kcal/mol	995.637 kg/m3
308.15 K, x1 = 0.003086	-0.0116 kcal/mol	996.432 kg/m3
308.15 K, x1 = 0.003088	-0.0117 kcal/mol	996.443 kg/m3
308.15 K, x1 = 0.004109	-0.0155 kcal/mol	997.222 kg/m3
308.15 K, x1 = 0.004114	-0.0155 kcal/mol	997.237 kg/m3
308.15 K, x1 = 0.005131	-0.0194 kcal/mol	998.031 kg/m3
308.15 K, x1 = 0.005137	-0.0194 kcal/mol	998.026 kg/m3
308.15 K, x1 = 0.006152	-0.0232 kcal/mol	998.821 kg/m3
308.15 K, x1 = 0.00616	-0.0232 kcal/mol	998.816 kg/m3
313.15 K, x1 = 0.001032	-0.00352 kcal/mol	992.976 kg/m3
313.15 K, x1 = 0.002062	-0.0071 kcal/mol	993.745 kg/m3
313.15 K, x1 = 0.003091	-0.0107 kcal/mol	994.499 kg/m3
313.15 K, x1 = 0.004116	-0.0142 kcal/mol	995.251 kg/m3
313.15 K, x1 = 0.005139	-0.0178 kcal/mol	996.015 kg/m3
313.15 K, x1 = 0.006161	-0.0213 kcal/mol	996.763 kg/m3
318.15 K, x1 = 0.001031	-0.00324 kcal/mol	990.924 kg/m3
318.15 K, x1 = 0.001032	-0.00325 kcal/mol	990.928 kg/m3
318.15 K, x1 = 0.00206	-0.00659 kcal/mol	991.645 kg/m3
318.15 K, x1 = 0.002062	-0.00661 kcal/mol	991.65 kg/m3
318.15 K, x1 = 0.003088	-0.01 kcal/mol	992.362 kg/m3
318.15 K, x1 = 0.00309	-0.00996 kcal/mol	992.361 kg/m3
318.15 K, x1 = 0.004114	-0.0133 kcal/mol	993.082 kg/m3
318.15 K, x1 = 0.004116	-0.0133 kcal/mol	993.069 kg/m3
318.15 K, x1 = 0.005137	-0.0167 kcal/mol	993.801 kg/m3
318.15 K, x1 = 0.00514	-0.0168 kcal/mol	993.799 kg/m3
318.15 K, x1 = 0.006159	-0.0201 kcal/mol	994.517 kg/m3
318.15 K, x1 = 0.006164	-0.0202 kcal/mol	994.503 kg/m3
